Test results reported in US8506945B2, “Polymers with structure-defined functions” (Smith & Nephew, PLC., priority 2001, dated 2013).
pIC50: −log10 of the molar value.

Tests used:
Elastase = Elastase (1.2 μg/ml), 20° C., 0.2M TRIS buffer
[1] = test system: ovine meniscal chondrocytes P3; test: Cytotoxicity on chondrocyte culture, PicoGreen DNA assay; type: cell-based; conditions: 48 h incubation, DNA by PicoGreen assay
Excerpt: The high chemical reactivity of protease inhibitors represents toxicological problems both in vitro and potentially in vivo. […] DNA concentrations were obtained using a PicoGreen assay.

Thrombin = Thrombin (Homo sapiens, UniProt P00734); test: biochemical

In the case of NCCc1ccc(S(=O)(=O)F)cc1 [AEBSF, 4-(2-aminoethyl)benzenesulphonylfluoride], the pIC50 (Elastase) was 3.51, the “concentration at which significant toxicity deviation from the vehicle alone begins” value [1] was 8000 ng/mL and the pIC50 (Thrombin) was 3.15.
